Compared with `CCOC(=O)c1c(-c2cc(C)c(O)c(C)c2)c(CC)n2c1-c1cc(OC)c(OC)cc1CC2C` (racemic) [Example 9, (5RS)-3-Ethyl-2-(4-hydroxy-3,5-dimethyl-phenyl)-8,9-dimethoxy-5-methyl-5,6-dihydro-pyrrolo[2,1-a]isoquinoline-1-carboxylic acid ethyl ester], `CCOC(=O)c1c(-c2cc(C)c(O)c(C)c2)c(C)n2c1-c1cc(OC)c(OC)cc1CC2CC` (racemic) [Example 6, (5RS)-5-Ethyl-2-(4-hydroxy-3,5-dimethyl-phenyl)-8,9-dimethoxy-3-methyl-5,6-dihydro-pyrrolo[2,1-a]isoquinoline-1-carboxylic acid ethyl ester] is lower in melting point: 188 to 190 °C for the first, 164 to 166 °C for the second.

Compared with `COC(=O)c1c(-c2cc(C)c(O)c(C)c2)c(C)n2c1-c1cc(OC)c(OC)cc1CC2C` (stereo not drawn) [Example 65, 2-(4-Hydroxy-3,5-dimethyl-phenyl)-8,9-dimethoxy-3,5-dimethyl-5,6-dihydro-pyrrolo[2,1-a]isoquinoline-1-carboxylic acid methyl ester], `COc1cc2c(cc1OC)-c1c(C#N)c(-c3cc(C)c(O)c(C)c3)c(CN3CCOCC3)n1C(C)C2` (stereo not drawn) [Example 44, 2-(4-Hydroxy-3,5-dimethyl-phenyl)-8,9-dimethoxy-5-methyl-3-morpholin-4-ylmethyl-5,6-dihydro-pyrrolo[2,1-a]isoquinoline-1-carbonitrile] is higher in melting point: 177 to 179 °C for the first, 228 to 230 °C for the second.

First: COc1cc2c(cc1OC)-c1c(C#N)c(-c3ccc([N+](=O)[O-])cc3)c(C)n1C(C)C2 (stereo not drawn) [Example 46, 8,9-Dimethoxy-3,5-dimethyl-2-(4-nitro-phenyl)-5,6-dihydro-pyrrolo[2,1-a]isoquinoline-1-carbonitrile]
Second: COc1cc2c(cc1OC)-c1c(C#N)c(-c3ccnc(C)c3)c(C)n1C(C)C2 (stereo not drawn) [Example 45]
The melting point of the first is higher: 206 to 207 °C for the first, 187 to 189 °C for the second.

First: COC(=O)c1c(-c2cn(S(=O)(=O)c3ccc(C)cc3)c3ccccc23)c(C)n2c1-c1cc(OC)c(OC)cc1CC2C (stereo not drawn) [Example 66, 8,9-Dimethoxy-3,5-dimethyl-2-[1-(toluene-4-sulfonyl)-1H-indol-3-yl]-5,6-dihydro-pyrrolo[2,1-a]isoquinoline-1-carboxylic acid methyl ester]
Second: COC(=O)CCc1c(-c2ccncc2)c(C#N)c2n1CCc1cc(OC)c(OC)cc1-2 [Example 29, 3-(1-Cyano-8,9-dimethoxy-2-pyridin-4-yl-5,6-dihydro-pyrrolo[2,1-a]isoquinolin-3-yl)-propionic acid methyl ester]
The melting point of the first is lower: 177 to 179 °C for the first, 191 to 193 °C for the second.

Molecule `COc1cc2c(cc1OC)-c1c(C#N)c(-c3cc(C(C)(C)C)c(O)c(C(C)(C)C)c3)c(C)n1CC2` [Example 25, 2-(3,5-Di-tert-butyl-4-hydroxy-phenyl)-8,9-dimethoxy-3-methyl-5,6-dihydro-pyrrolo[2,1-a]isoquinoline-1-carbonitrile] has a melting point of 250 to 252 °C.
